Tests used:
Caspase-7 = biological target: T1, Caspase-7 (Homo sapiens, UniProt P55210); settings: active form of Belnacasan; cited from earlier work
T1 sequence (P55210 24-198 limits assumed): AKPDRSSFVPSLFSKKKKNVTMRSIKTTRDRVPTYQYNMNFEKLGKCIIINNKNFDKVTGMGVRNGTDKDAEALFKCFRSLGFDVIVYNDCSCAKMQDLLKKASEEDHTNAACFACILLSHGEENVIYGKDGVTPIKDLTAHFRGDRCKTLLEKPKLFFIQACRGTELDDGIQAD
T1 sequence (P55210 207-303 limits assumed): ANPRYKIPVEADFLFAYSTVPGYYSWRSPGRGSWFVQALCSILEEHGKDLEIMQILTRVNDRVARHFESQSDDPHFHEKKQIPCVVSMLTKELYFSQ

Caspase-9 = biological target: T2, Caspase-9 (Homo sapiens, UniProt P55211); settings: active form of Belnacasan; cited from earlier work
T2 sequence (P55211 1-315 limits assumed): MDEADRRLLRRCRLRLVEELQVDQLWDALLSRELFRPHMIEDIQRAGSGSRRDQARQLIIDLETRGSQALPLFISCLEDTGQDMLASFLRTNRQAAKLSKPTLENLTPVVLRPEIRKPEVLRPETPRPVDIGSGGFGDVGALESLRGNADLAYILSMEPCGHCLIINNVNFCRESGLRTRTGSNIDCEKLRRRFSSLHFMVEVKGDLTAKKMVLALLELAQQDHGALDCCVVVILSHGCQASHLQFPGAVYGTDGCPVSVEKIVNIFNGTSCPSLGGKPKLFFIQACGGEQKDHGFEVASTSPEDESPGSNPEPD
T2 sequence (P55211 331-416 limits assumed): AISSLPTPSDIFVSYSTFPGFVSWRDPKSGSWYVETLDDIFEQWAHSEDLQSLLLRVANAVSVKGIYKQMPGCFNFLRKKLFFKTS

Caspase-3 = biological target: T3, Caspase-3 (Homo sapiens, UniProt P42574); settings: active form of Belnacasan; cited from earlier work
T3 sequence (P42574 29-175 limits assumed): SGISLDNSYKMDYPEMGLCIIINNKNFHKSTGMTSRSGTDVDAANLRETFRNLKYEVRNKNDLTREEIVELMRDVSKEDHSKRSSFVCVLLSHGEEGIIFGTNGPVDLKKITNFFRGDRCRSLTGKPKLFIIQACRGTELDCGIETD
T3 sequence (P42574 176-277 limits assumed): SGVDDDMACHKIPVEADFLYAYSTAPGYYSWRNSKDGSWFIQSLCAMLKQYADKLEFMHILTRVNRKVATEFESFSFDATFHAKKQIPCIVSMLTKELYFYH

Caspase-4 = biological target: T4, Caspase-4 (Homo sapiens, UniProt P49662); settings: active form of Belnacasan; cited from earlier work
T4 sequence (P49662 81-270 limits assumed): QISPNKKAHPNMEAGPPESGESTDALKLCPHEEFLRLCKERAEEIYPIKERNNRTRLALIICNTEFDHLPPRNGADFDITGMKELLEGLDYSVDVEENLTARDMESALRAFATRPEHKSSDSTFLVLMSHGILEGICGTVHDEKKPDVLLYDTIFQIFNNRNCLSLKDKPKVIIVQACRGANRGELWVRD
T4 sequence (P49662 290-377 limits assumed): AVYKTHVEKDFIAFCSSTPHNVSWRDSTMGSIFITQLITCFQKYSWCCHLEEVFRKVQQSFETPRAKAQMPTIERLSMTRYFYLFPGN

[1] = osteoarthritis, epilepsy, myocardial infarction (in combination with a platelet inhibitor); cited from earlier work
[2] = cited from earlier work
[3] = system: inflammasome-mediated release of IL1beta; assay: Nigericin-induced IL-1β release in PMA-differentiated, LPS-stimulated THP-1 cells (ELISA); assay type: cell-based, human; settings: PMA 50 nM 24 h, LPS 1 μg/mL 6 h
Procedure: THP-1 cells come from a child with leukemia. It is a pre-monocytic line, characterized by a suspension of (non-adherent) cells with a well rounded shape. The cells used come from ATCC. The cells are cultured at a density of 0.4.106 /mL in T75 flasks kept upright in RPMI 1640 Medium, Glutamax, Supplement HEPES (ThermoFischer Scientific, #72400027) supplemented with 10% FCS (previously decomplemented and flitre) and 1% PS antibiotics. The cultures are maintained at 37° C. under a humid atmosphere with 5% CO2.
The differentiation of THP-1 is induced by adding phorbol 12-myritate 13-acetate (PMA, 5 mg/mL stock in DMSO, InvivoGen, # tlrl-pma) to the medium. More precisely, the latter mimics the structure of diacylglycerol (DAG) which is an activator of protein Kinase C (PKC). Thus, it allows the stimulation of the expression of transcription factors including NF-kB, which are involved in macrophage differentiation (Park E. K. et al., 2007; Daigneault M. et al., 2010). After treatment with PMA the cells acquire a macrophages-like phenotype, that is, they become adherent and no longer divide. In practice, the cells are seeded on 24-well plates at a density of 300.103 cells/well, the PMA is then added for 24 hours at a concentration of 50 nM. The next day, the cells are washed gently with PBS and fresh complete medium is added, the cells are then left for 3 days. […]

interleukin-1β release = settings: after LPS treatment; cited from earlier work

| Compound | Ki (Caspase-7) | Ki (Caspase-9) | Ki (Caspase-3) | Ki (Caspase-4) | efficacy in animal models [1] | tolerability in humans ([2]; oral) | decrease in the frequency of epileptic episodes (secondary endpoint) ([2]; phase 2b, 60 patients with epilepsy (48 VX-765), no statistical superiority vs placebo) | primary endpoint of safety and tolerance ([2]; phase 2b, 60 patients with epilepsy) | reduction of the release of the cytokine IL-1β into the medium ([3]; 25 μM, after 120 minutes of Nigericin treatment) | release of IL-1beta induced by nigericin ([3]; Nigericin 5 μM for 60 and 120 minutes, n=3) | efficacy in cellular models of interleukin-1β release (interleukin-1β release) |
| --- | --- | --- | --- | --- | --- | --- | --- | --- | --- | --- | --- |
| CC(C)(C)[C@H](NC(=O)c1ccc(N)c(Cl)c1)C(=O)N1CCC[C@H]1C(=O)N[C@H](C=O)CC(=O)O [VRT-043198] | 21.5 µM | 1 µM | 16 µM | < 0.0006 µM | – | – | – | – | – | – | – |
| CCO[C@@H]1OC(=O)C[C@@H]1NC(=O)[C@@H]1CCCN1C(=O)[C@@H](NC(=O)c1ccc(N)c(Cl)c1)C(C)(C)C [Belnacasan, (S)-1-((S)-2-(4-Amino-3-chlorobenzamido)-3,3-dimethylbutanoyl)-N-((2R,3S)-2-ethoxy-5-oxotetrahydrofuran-3-yl)pyrrolidine-2-carboxamide] | – | – | – | – | significant efficacy | well tolerated | 15.6% | reached | 90% | prevents the release | effective |

— US20230372292A1 (priority 2020, published 2023)
